From paper PMC10033419, “Blocking NS3–NS4B interaction inhibits dengue virus in non-human primates” (Nature, 2023)
“And” between values parts separate entries of the source, which are not always exact repeats. Identical values can stand only once. Like-named read-outs stand apart in the source and are kept apart here.

Test system: DENV-2 RL
Assay: microbe, parasite or virus in culture
Assay type: cell-based
Conditions: Dengue virus, DENV2, Vero

SMILES: COc1cc(N[C@H](C(=O)c2c[nH]c3ccc(OC(F)(F)F)cc23)c2ccc(Cl)cc2OC)cc(S(C)(=O)=O)c1 [JNJ-1802]
- EC50 (read-out: EC50 values Ave, B sample, passage 8): 0.126 nM
- EC50 (read-out: EC50 values Ave, B sample, passage 9): 0.126 nM
- EC50 (read-out: EC50 values Ave, B sample, passage 10): 0.126 nM
- EC50 (read-out: EC50 values Ave, B sample, passage 11): 0.000146 µg/mL and 0.251 nM
- EC50 (read-out: EC50 values Ave, B sample, passage 12): 0.000146 µg/mL and 0.251 nM
- EC50 (read-out: EC50 values Ave, B sample, passage 13): 0.000293 µg/mL and 0.503 nM
- EC50 (read-out: EC50 values Ave, B sample, passage 14): 0.126 nM
- EC50 (read-out: EC50 values Ave, B sample, passage 15): 0.126 nM
- EC50 (read-out: EC50 values Ave, B sample, passage 16): 0.000146 µg/mL and 0.251 nM
- EC50 (read-out: EC50 values Ave, B sample, passage 17): 0.000146 µg/mL and 0.251 nM
- EC50 (read-out: EC50 values Ave, B sample, passage 18): 0.000146 µg/mL and 0.251 nM
- EC50 (read-out: EC50 values Ave, B sample, passage 19): 0.000293 µg/mL and 0.503 nM
- EC50 (read-out: EC50 values Ave, B sample, passage 20): 0.000293 µg/mL and 0.503 nM
- EC50 (read-out: EC50 values Ave, B sample, passage 21): 0.000293 µg/mL and 0.503 nM
- EC50 (read-out: EC50 values Ave, B sample, passage 22): 0.000293 µg/mL and 0.503 nM
- EC50 (read-out: EC50 values Ave, B sample, passage 23): 1.01 nM
- EC50 (read-out: EC50 values Ave, B sample, passage 24): 0.00117 µg/mL and 2.01 nM
- EC50 (read-out: EC50 values Ave, B sample, passage 25): 0.00234 µg/mL and 4.02 nM
- EC50 (read-out: EC50 values Ave, B sample, passage 26): 0.00469 µg/mL and 8.04 nM
- EC50 (read-out: EC50 values Ave, B sample, passage 27): 0.00469 µg/mL and 8.04 nM
- EC50 (read-out: EC50 values Ave, B sample, passage 28): 0.00469 µg/mL and 8.04 nM
- EC50 (read-out: EC50 values Ave, B sample, passage 31): 0.0234 µg/mL and 40.2 nM
- EC50 (read-out: EC50 values Ave, B sample, passage 32): 0.0234 µg/mL and 40.2 nM
- EC50 (read-out: EC50 values Ave, B sample, passage 33): 0.0469 µg/mL and 80.4 nM
- EC50 (read-out: EC50 values Ave, B sample, passage 34): 0.0469 µg/mL and 80.4 nM
- EC50 (read-out: EC50 values Ave, B sample, passage 35): 0.0469 µg/mL and 80.4 nM
- EC50 (read-out: EC50 values Ave, B sample, passage 36): 0.0469 µg/mL and 80.4 nM
- EC50 (read-out: EC50 values Ave, B sample, passage 37): 0.0469 µg/mL and 80.4 nM
- EC50 (read-out: EC50 values Ave, B sample, passage 38): 0.0469 µg/mL and 80.4 nM
- EC50 (read-out: EC50 values Ave, B sample, passage 39): 0.0938 µg/mL and 161 nM
- EC50 (read-out: EC50 values Ave, B sample, passage 40): 322 nM
- EC50 (read-out: EC50 values Ave, B sample, passage 41): 0.375 µg/mL and 643 nM
- EC50 (read-out: EC50 values Ave, B sample, passage 42): 0.375 µg/mL and 643 nM
- EC50 (read-out: EC50 values Ave, B sample, passage 43): 0.375 µg/mL and 643 nM
- EC50 (read-out: EC50 values Ave, B sample, passage 44): 0.375 µg/mL and 643 nM
- EC50 (read-out: EC50 values Ave, B sample, passage 45): 0.375 µg/mL and 643 nM
- EC50 (read-out: EC50 values Ave, B sample, passage 46): 0.375 µg/mL and 643 nM
- EC50 (read-out: EC50 values Ave, B sample, passage 47): 0.375 µg/mL and 643 nM
- EC50 (read-out: EC50 values Ave, B sample, passage 48): 1290 nM
- EC50 (read-out: EC50 values Ave, B sample, passage 49): 1290 nM
- EC50 (read-out: EC50 values Ave, B sample, passage 50 (END)): 1290 nM
- EC50 (read-out: EC50 values [Well 1], A sample, passage 1): 0.049 ng/mL
- EC50 (read-out: EC50 values [Well 1], A sample, passage 2): 0.049 ng/mL
- EC50 (read-out: EC50 values [Well 1], A sample, passage 3): 0.049 ng/mL
- EC50 (read-out: EC50 values [Well 1], A sample, passage 4): 0.049 ng/mL
- EC50 (read-out: EC50 values [Well 1], A sample, passage 5): 0.049 ng/mL
- EC50 (read-out: EC50 values [Well 1], A sample, passage 7): 0.049 ng/mL
- EC50 (read-out: EC50 values [Well 1], A sample, passage 8): 0.049 ng/mL
- EC50 (read-out: EC50 values [Well 1], A sample, passage 10): 0.195 ng/mL
- EC50 (read-out: EC50 values [Well 1], A sample, passage 11): 0.195 ng/mL
- EC50 (read-out: EC50 values [Well 1], A sample, passage 12): 0.195 ng/mL
- EC50 (read-out: EC50 values [Well 1], A sample, passage 13): 0.391 ng/mL
- EC50 (read-out: EC50 values [Well 1], A sample, passage 16): 1.56 ng/mL
- EC50 (read-out: EC50 values [Well 1], A sample, passage 17): 3.13 ng/mL
- EC50 (read-out: EC50 values [Well 1], A sample, passage 18): 6.25 ng/mL
- EC50 (read-out: EC50 values [Well 1], A sample, passage 20): 25 ng/mL
- EC50 (read-out: EC50 values [Well 1], A sample, passage 21): 25 ng/mL
- EC50 (read-out: EC50 values [Well 1], A sample, passage 22): 25 ng/mL
- EC50 (read-out: EC50 values [Well 1], A sample, passage 23): 25 ng/mL
- EC50 (read-out: EC50 values [Well 1], A sample, passage 24): 50 ng/mL
- EC50 (read-out: EC50 values [Well 1], A sample, passage 25): 50 ng/mL
- EC50 (read-out: EC50 values [Well 1], A sample, passage 26): 100 ng/mL
- EC50 (read-out: EC50 values [Well 1], A sample, passage 27): 200 ng/mL
- EC50 (read-out: EC50 values [Well 1], A sample, passage 28): 200 ng/mL
- EC50 (read-out: EC50 values [Well 1], A sample, passage 29): 200 ng/mL
- EC50 (read-out: EC50 values [Well 1], A sample, passage 30): 200 ng/mL
- EC50 (read-out: EC50 values [Well 1], A sample, passage 31): 100 ng/mL
